Assay results from US10227312B2, “Glucosylceramide synthase inhibitors for the treatment of diseases” (BIOMARIN PHARMACEUTICAL INC., priority 2015, dated 2019).

How the values were obtained:
[1] = target: glucosylceramide synthase (GCS) (Canis lupus familiaris, UniProt A0A8I3MXG6); test: GCS Enzymatic Assay (MDCK lysates); type: biochemical, canine; conditions: MDCK cell lysate, C6-NBD-Ceramide, 37° C. for 1 hour, LC/MS; read-out: Assay 1 (Enzyme Assay; MDCK lysates) IC50
Experimental: Madin-Darby canine kidney (MDCK) cell lysate was prepared using M-PER Mammalian Protein Extraction Reagent (Thermal Scientific) in the presence of a protease inhibitor cocktail (Roche). Protein concentration was determined using BCA assay kit (Pierce). […] 0.1% DMSO was used as mock treatment or control. The reaction was terminated by adding 100 μL acetonitrile solution and subjected to LC/MS analysis.
The quantitative analysis of NBD-Ceramide and glucosylceramide was performed on a Shimadzu ultra-fast liquid chromatography (Shimadzu, Japan) coupled with API 4000 triple quadrupole mass spectrometer (Applied Biosystems, Concord, Ontario, Canada). Sample separation was conducted on a Waters Xbridge™ BEH130 C18, 100 mm×4.6 mm i.d, 3.5 μm (Milford, Mass., USA). The mobile phase consisted of water and acetonitrile supplemented with 0.1% formic acid (v/v). The flow rate was 1.0 mL/min. The initial mobile phase was 20% acetonitrile and was ramped in a linear fashion to 50% acetonitrile in 0.4 min. From 0.4 to 1.5 min, the gradient was ramped to 98% acetonitrile, and then was held at […] until 8.0 min. Acetonitrile was reset to 20% in 1.5 min, and maintained until 10.0 min. The total run time was 10.0 min. The MS/MS detection was performed in ESI positive mode. […] The cell lysate was diluted with equal volume of acetonitrile. Aliquots of 50 μL diluted samples were added to 1.5 mL tubes, and 100 μL of acetonitrile containing internal standard (100 ng/mL tolbutamide) were added for protein precipitation. The mixture were vortexed and then centrifuged at 13000 rpm for 10 min. 70 μL of supernatant were mixed with 140 μL of H2O and the final solution were injected for LC/MS/MS analysis and IC50's and/or percent inhibitions calculated.

K562 cells = test: K562 Cell-Based Assay; conditions: Homo sapiens, NBD-Ceramide, LCMS, read-out: Assay 2 (Cellular Assay; K562 cells) IC50
Experimental: This assay was modified based on the study by Gupta et al. (J. Lipid Res. 2010, 51, 866). K562 cells were seeded into 12-well plates at 3×10^5 cells/well/mL in RPMI-1640 medium with 5% FBS and incubated at 37° C. for 24 h. One μL of a compound described herein at desired concentration (10 mM, 1 mM, 0.1 mM, 0.01 mM, 0.001 mM and 0.0001 mM in DMSO) or DMSO was added into the corresponding well and mixed. Cells were incubated at 37° C. for 4 h. Then 100 μL of RPMI-1640 medium containing 110 μM of NBD-Ceramide, 11% BSA, 5% FBS, and corresponding concentration of a compound described herein was added into each well and mixed. Cells were incubated for additional 0.5 h at 37° C., followed by washing the cells with ice-cold PBS (pH 7.4) twice with centrifugation and resuspended with 50 μL cold PBS+1% Triton X-100. The cell lysate was sonicated for 15 min before adding equal volume of methanol for LCMS analysis. A small aliquot of cell lysate was used to determine protein concentration by BCA assay kit. The HPLC equipment and methods used in Assay 1 were used in this assay as well and IC50's were calculated.

Chain of glucosylceramide synthase (GCS) (A0A8I3MXG6 1-394): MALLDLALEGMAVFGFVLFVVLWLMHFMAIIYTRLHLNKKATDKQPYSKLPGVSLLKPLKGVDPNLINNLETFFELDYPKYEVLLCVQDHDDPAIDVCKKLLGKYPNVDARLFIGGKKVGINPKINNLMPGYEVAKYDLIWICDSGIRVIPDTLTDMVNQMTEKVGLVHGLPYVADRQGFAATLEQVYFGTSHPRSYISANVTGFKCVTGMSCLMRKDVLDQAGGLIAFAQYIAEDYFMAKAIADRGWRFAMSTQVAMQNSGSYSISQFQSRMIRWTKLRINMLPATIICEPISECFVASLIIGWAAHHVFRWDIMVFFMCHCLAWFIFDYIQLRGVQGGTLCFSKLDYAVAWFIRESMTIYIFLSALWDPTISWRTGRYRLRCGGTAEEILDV

| SMILES | IC50 [1] [nM] | IC50 (K562 cells) [nM] |
| --- | --- | --- |
| O=C(N[C@H](CN1CCCC1)[C@H](O)c1ccc(OC2CC2)c(Cl)c1)C1=NOCc2c1ccc1ccccc21 [Example 22, N-((1R,2R)-1-(3-chloro-4-cyclopropoxyphenyl)-1-hydroxy-3-(pyrrolidin-1-yl)propan-2-yl)-1H-naphtho[2,1-d][1,2]oxazine-4-carboxamide] | < 10 | ≤ 10 |
| O=C(N[C@H](CN1CCCC1)[C@H](O)c1ccc(OC2CC2)cc1)C1=NOCc2c1ccc1ccccc21 [Example 25, N-((1R,2R)-1-(4-cyclopropoxyphenyl)-1-hydroxy-3-(pyrrolidin-1-yl)propan-2-yl)-1H-naphtho[2,1-d][1,2]oxazine-4-carboxamide] | < 10 | ≤ 10 |
| O=C(N[C@H](CN1CCC1)[C@H](O)c1ccc(OC2CC2)c(Cl)c1)C1=NOCc2c1ccc1ccccc21 [Example 26, N-((1R,2R)-3-(azetidin-1-yl)-1-(3-chloro-4-cyclopropoxyphenyl)-1-hydroxypropan-2-yl)-1H-naphtho[2,1-d][1,2]oxazine-4-carboxamide] | < 10 | ≤ 10 |
| O=C(N[C@H](CN1CCCC1)[C@H](O)c1ccc(OC2CC2)c(Cl)c1)C1=NOCc2c1ccc1cccnc21 [Example 27, N-((1R,2R)-1-(3-chloro-4-cyclopropoxyphenyl)-1-hydroxy-3-(pyrrolidin-1-yl)propan-2-yl)-10H-[1,2]oxazino[4,5-h]quinoline-7-carboxamide] | < 10 | 10 to 100 |
| O=C(N[C@H](CN1CCC1)[C@H](O)c1ccc(OC2CC2)cc1)C1=NOCc2c1ccc1cc(F)ccc21 [Example 31, N-((1R,2R)-3-(azetidin-1-yl)-1-(4-cyclopropoxyphenyl)-1-hydroxypropan-2-yl)-8-fluoro-1H-naphtho[2,1-d][1,2]oxazine-4-carboxamide] | 10 to 100 | 10 to 100 |
| O=C(N[C@H](CN1CCCC1)[C@H](O)c1ccc(OC2CC2)c(Cl)c1)C1=NOCc2c1ccc1sc(Cl)cc21 [Example 32, 8-chloro-N-((1R,2R)-1-(3-chloro-4-cyclopropoxyphenyl)-1-hydroxy-3-(pyrrolidin-1-yl)propan-2-yl)-1H-thieno[3′,2′:3,4]benzo[1,2-d][1,2]oxazine-4-carboxamide] | < 10 | ≤ 10 |
| Cn1ncc2c3c(ccc21)C(C(=O)N[C@H](CN1CCCC1)[C@H](O)c1ccc(OC2CC2)c(Cl)c1)=NOC3 [Example 33, N-((1R,2R)-1-(3-chloro-4-cyclopropoxyphenyl)-1-hydroxy-3-(pyrrolidin-1-yl)propan-2-yl)-7-methyl-1,7-dihydro-[1,2]oxazino[5,4-e]indazole-4-carboxamide] | < 10 | 10 to 100 |
| Cn1ncc2ccc3c(c21)CON=C3C(=O)N[C@H](CN1CCCC1)[C@H](O)c1ccc(OC2CC2)c(Cl)c1 [Example 34, N-((1R,2R)-1-(3-chloro-4-cyclopropoxyphenyl)-1-hydroxy-3-(pyrrolidin-1-yl)propan-2-yl)-1-methyl-1,9-dihydro-[1,2]oxazino[4,5-g]indazole-6-carboxamide] | < 10 | 10 to 100 |
| O=C(N[C@H](CN1CCCC1)[C@H](O)c1ccc(OC2CC2)c(Cl)c1)C1=NOCc2c1ccc1ncccc21 [Example 36, N-((1R,2R)-1-(3-chloro-4-cyclopropoxyphenyl)-1-hydroxy-3-(pyrrolidin-1-yl)propan-2-yl)-1H-[1,2]oxazino[5,4-f]quinoline-4-carboxamide] | < 10 | 10 to 100 |
| O=C(N[C@H](CN1CCCC1)[C@H](O)c1ccc(OC2CC2)c(Cl)c1)C1=NOCc2c1ccc1cc(Cl)sc21 [Example 37, 2-chloro-N-((1R,2R)-1-(3-chloro-4-cyclopropoxyphenyl)-1-hydroxy-3-(pyrrolidin-1-yl)propan-2-yl)-9H-thieno[2′,3′:3,4]benzo[1,2-d][1,2]oxazine-6-carboxamide] | < 10 | ≤ 10 |
| O=C(N[C@H](CN1CCCC1)[C@H](O)c1ccc(OC2CC2)cc1)C1=NOCc2c1ccc1sc(Cl)cc21 [Example 44, 8-chloro-N-((1R,2R)-1-(4-cyclopropoxyphenyl)-1-hydroxy-3-(pyrrolidin-1-yl)propan-2-yl)-1H-thieno[3′,2′:3,4]benzo[1,2-d][1,2]oxazine-4-carboxamide] | 10 to 100 | ≤ 10 |
| O=C(N[C@H](CN1CCCC1)[C@H](O)c1ccc(OC2CC2)c(Cl)c1)C1=NOCc2cc(OCC3CCCCC3)ccc21 [Example 45, N-((1R,2R)-1-(3-chloro-4-cyclopropoxyphenyl)-1-hydroxy-3-(pyrrolidin-1-yl)propan-2-yl)-7-(cyclohexylmethoxy)-1H-benzo[d][1,2]oxazine-4-carboxamide] | < 10 | 10 to 100 |

Now from value to compound:

| IC50 [1] [nM] | IC50 (K562 cells) [nM] | SMILES |
| --- | --- | --- |
| 10 to 100 | 10 to 100 | CC1ON=C(C(=O)N[C@H](CN2CCCC2)[C@H](O)c2ccc(OC3CC3)c(Cl)c2)c2ccc(-c3ccc(F)cc3)cc21 (stereo partly drawn) [Example 24, N-((1R,2R)-1-(3-chloro-4-cyclopropoxyphenyl)-1-hydroxy-3-(pyrrolidin-1-yl)propan-2-yl)-7-(4-fluorophenyl)-1-methyl-1H-benzo[d][1,2]oxazine-4-carboxamide] |
| < 10 | ≤ 10 | O=C(N[C@H](CN1CCCC1)[C@H](O)c1ccc(OC2CC2)c(Cl)c1)C1=NOCc2c1ccc1cc(F)ccc21 [Example 28, N-((1R,2R)-1-(3-chloro-4-cyclopropoxyphenyl)-1-hydroxy-3-(pyrrolidin-1-yl)propan-2-yl)-8-fluoro-1H-naphtho[2,1-d][1,2]oxazine-4-carboxamide] |
| < 10 | ≤ 10 | O=C(N[C@H](CN1CCCC1)[C@H](O)c1ccc(OC2CC2)cc1)C1=NOCc2c1ccc1cc(F)ccc21 [Example 29, N-((1R,2R)-1-(4-cyclopropoxyphenyl)-1-hydroxy-3-(pyrrolidin-1-yl)propan-2-yl)-8-fluoro-1H-naphtho[2,1-d][1,2]oxazine-4-carboxamide] |
| < 10 | 10 to 100 | O=C(N[C@H](CN1CCC1)[C@H](O)c1ccc(OC2CC2)c(Cl)c1)C1=NOCc2c1ccc1cc(F)ccc21 [Example 30, N-((1R,2R)-3-(azetidin-1-yl)-1-(3-chloro-4-cyclopropoxyphenyl)-1-hydroxypropan-2-yl)-8-fluoro-1H-naphtho[2,1-d][1,2]oxazine-4-carboxamide] |
| 10 to 100 | ≤ 10 | O=C(N[C@H](CN1CCCC1)[C@H](O)c1ccc(OC2CC2)c(F)c1)C1=NCCc2cc(-c3ccc(F)cc3)ccc21 [Example 38, N-((1R,2R)-1-(4-cyclopropoxy-3-fluorophenyl)-1-hydroxy-3-(pyrrolidin-1-yl)propan-2-yl)-6-(4-fluorophenyl)-3,4-dihydroisoquinoline-1-carboxamide] |
| 10 to 100 | ≤ 10 | CN(C(=O)C1=NCCc2cc(-c3ccc(F)cc3)ccc21)[C@H](CN1CCCC1)[C@H](O)c1ccc(OC2CC2)c(Cl)c1 [Example 39, N-((1R,2R)-1-(3-chloro-4-cyclopropoxyphenyl)-1-hydroxy-3-(pyrrolidin-1-yl)propan-2-yl)-6-(4-fluorophenyl)-N-methyl-3,4-dihydroisoquinoline-1-carboxamide] |
| < 10 | ≤ 10 | Cn1ncc2ccc3c(c21)CON=C3C(=O)N[C@H](CN1CCCC1)[C@H](O)c1ccc(OC2CC2)c(F)c1 [Example 46, N-((1R,2R)-1-(4-cyclopropoxy-3-fluorophenyl)-1-hydroxy-3-(pyrrolidin-1-yl)propan-2-yl)-1-methyl-1,9-dihydro[1,2]oxazino[4,5-g]indazole-6-carboxamide] |
| < 10 | ≤ 10 | O=C(N[C@H](CN1CCCC1)[C@H](O)c1ccc(OC2CC2)c(F)c1)C1=NOCc2c1ccc1cc(Cl)sc21 [Example 47, 2-chloro-N-((1R,2R)-1-(4-cyclopropoxy-3-fluorophenyl)-1-hydroxy-3-(pyrrolidin-1-yl)propan-2-yl)-9H-thieno[2′,3′:3,4]benzo[1,2-d][1,2]oxazine-6-carboxamide] |
